Read-outs that look alike come from different tables or passages of the source.
How the values were obtained:
HTNV-76118 strain [1] = experiment: microbe, parasite or virus in culture; format: cell-based, Hantaan virus (HTNV); conditions: Orthohantavirus hantanense, Vero C1008, 120 h
HTNV-76118 strain [2] = experiment: microbe, parasite or virus in culture; format: cell-based, Hantaan virus (HTNV); conditions: Orthohantavirus hantanense, Vero C1008, read-out: EC50, 2H pretreatment
HTNV-76118 strain [3] = experiment: microbe, parasite or virus in culture; format: cell-based, Hantaan virus (HTNV); conditions: Orthohantavirus hantanense, Vero C1008, read-out: EC50, Post entry
HTNV-76118 strain [4] = experiment: microbe, parasite or virus in culture; format: cell-based, Hantaan virus (HTNV); conditions: for EC50: Orthohantavirus hantanense, Vero C1008, read-out: EC50, Virucidal
HTNV = format: cell-based, Hantaan virus (HTNV)
in vitro = conditions: African green monkey

With `CC(C)CC(=O)c1c(O)c2c(c3c1OC1(O)C(C(=O)C(C)(C)C(=O)C1(C)C)C3C(C)C)OC1=C(C(=O)C(C)(C)C(=O)C1(C)C)C2CC(C)C` (stereo not shown) [Callistemontrimer A, callistemontrimer A] the EC50 (HTNV-76118 strain [1]) was 4.41 ± 3.4 µM, the EC50 (HTNV-76118 strain [2]) was greater than 50 µM and the EC50 (HTNV-76118 strain [3]) was 0.65 ± 0.45 µM. For the same molecule, the “direct virucidal effect on HTNV” value (HTNV-76118 strain [4]) was “neither compound exhibited a direct virucidal effect”, the EC50 (HTNV-76118 strain [4]) was greater than 50 µM and the “suppression of viral replication (HTNV nucleoprotein immunofluorescence)” value (HTNV) was “effectively suppressed viral replication”. It also gave a CC50 (in vitro) of 32.1 ± 6 µM.

Work on `CC(C)CC(=O)c1c(O)c2c(c3c1OC1(O)C(C(=O)C(C)(C)C(=O)C1(C)C)C3CC(C)C)OC1=C(C(=O)C(C)(C)C(=O)C1(C)C)C2CC(C)C` (stereo not shown) [Callistemontrimer B, callistemontrimer B] yielded an EC50 (HTNV-76118 strain [1]) of 2.79 ± 1.4 µM and a CC50 (in vitro) of 16.9 ± 1 µM.

In the case of `CC(C)CC(=O)c1c(O)cc2c(c1O)C(CC(C)C)C1=C(O2)C(C)(C)C(=O)C(C)(C)C1=O` (stereo not shown) [Rhodomyrtone, rhodomyrtone], the EC50 (HTNV-76118 strain [1]) is reported as 0.3 ± 0.03 µM and the CC50 (in vitro) is reported as 5.11 ± 2.49 µM.

`CC(C)CC(=O)c1c(O)cc(O)c2c1OC1=C(C(=O)C(C)(C)C(=O)C1(C)C)C2CC(C)C` (stereo not shown) [Rhodomyrtosone B, rhodomyrtosone B] gave an EC50 (HTNV-76118 strain [1]) of 2.69 ± 0.32 µM and a CC50 (in vitro) of 7.44 ± 1.15 µM.

Work on `NC(=O)c1ncn([C@@H]2O[C@H](CO)[C@@H](O)[C@H]2O)n1` [Ribavirin, ribavirin, reference compound] yielded an EC50 (HTNV-76118 strain [1]) of 20.5 ± 1.63 µM, an EC50 (HTNV-76118 strain [2]) greater than 200 µM and an EC50 (HTNV-76118 strain [3]) of 13.2 ± 0.4 µM. The “direct virucidal effect on HTNV” value (HTNV-76118 strain [4]) was “neither compound exhibited a direct virucidal effect”, the EC50 (HTNV-76118 strain [4]) was greater than 200 µM and the CC50 (in vitro) was greater than 200 µM.
